Patent US6831080B2, “Cinnamide derivatives as KCNQ potassium channel modulators” (Bristol-Myers Squibb Company, priority 2001, dated 2004)

Tests used:
[1] = system: nerve injury-induced tactile allodynia (L5/L6 ligation), Sprague Dawley rats; assay: Chung model of neuropathic pain (Chung surgery and von Frey test); type: in vivo, rat; conditions: i.v., von Frey thresholds over 90 min
Protocol: To test agents for activity against peripheral mononeuropathy nerve injury-induced tactile allodynia, male Sprague Dawley rats (wt. 120-160 g) were surgically prepared with unilateral tight ligation of spinal nerves L5 and L6 following the method of Kim and Chung (Kim S. H., Chung J. M. (1992) Pain, September;50(3):355-63). After 3-4 weeks recovery, paw withdrawal to light touch was assessed as described by Chaplan et al. (Chaplan S. R., et al., (1994) J. Neurosci Methods, July;53(1):55-63). In brief, rats are placed in a plastic cage with a wire mesh bottom and allowed to acclimate for 15-30 minutes, until cage exploration and grooming stops. The plantar surface of each hind paw is touched with a series of von Frey hairs with varying stiffness requiring a known force to buckle to determine the nociceptive threshold. Adult male Sprague Dawley rats (avg. wt. 340 g) were tested in the present study. After acclimation, baseline von Frey thresholds were assessed for the injured hindpaw at −15 min. All test compounds were delivered at 0 min by the intravenous (i.v.) route in a volume of 0.5-2 ml/kg. The vehicle for test compounds was 100% PEG-400. For gabapentin the vehicle was deionized H2O. Animals were tested in one of the following 4 treatment conditions: (a) PEG400, (b) gabapentin (Neurontin) 100 mg/kg, (c) test compounds 3 mg/kg and (d) test compounds 10 mg/kg. Following drug administration, von Frey thresholds are measured at 15, 30, 60 and 90 min. Data were analyzed by a 2-way repeated measures analysis of variance followed by Dunnett's test (p<0.05). Experimenters were kept blind to the treatment condition of rats they tested.
Reversal of neuropathic pain behavior may be expressed as a percentage (0-100%) of the maximum possible effect, over and above the vehicle effects. Specifically, drug effects can be described in terms Δ% MPE according to the following equation: [formula]
AUCdrug=area under the curve for von Frey thresholds of the drug-treated group;
AUCvehicle=area under the curve for von Frey thresholds in the vehicle group;
Time=duration of post-drug testing period (90 min); and
Max=maximum von Frey threshold (15 g).
For example, a compound which immediately reversed neuropathic pain behavior to normal levels, such that animals only responded to the highest von Frey filament (15 g), and maintained normal levels through out the post-drug testing period (90 min) would be calculated as Δ% MPE=100%.

[2] = system: stretched attend postures, BalbC/HSD mice; assay: Canopy test for anxiety: stretched attend postures (SAPs); type: in vivo, mouse; conditions: for % Reduction SAPs: i.v., mouse
Description: The purpose of the Canopy test is to investigate the potential of compounds of Formula I as effective treatments for anxiety by examining an integral component of the risk assessment repertoire of defensive behaviors, the stretched attend posture (SAPs). […] This behavior is investigatory, and is considered an important behavioral indicator of anxiety in mice (Grewal et al., 1997). In brief, mice are placed on an elevated circular platform with a covered space in the middle, and an open space surrounding the covered zone. The number of SAPs the animals makes when exploring this environment are measured.
Subjects: Male BalbC/HSD mice (Harlan Sprague Dawley) weighing approximately 20-25 g at the beginning of the experiment, were used. Animals were group housed 4-5 per cage, in standard shoebox cages and maintained on a 12:12 h light-dark cycle (lights on at 0600). All animals were allowed food and water ad libitum throughout the procedure.
Apparatus: The test apparatus is comprised of a black plexiglas circular platform (70 cm diameter) elevated 60 cm above the floor. A clear red plexiglas (translucent) ‘canopy’ (38 cm diameter) is supported 4 cm directly above the platform by a central pillar, effectively dividing the platform into an inner, covered zone (beneath the canopy) and an outer, exposed zone. The apparatus is illuminated by normal room lighting.
Procedure: On test days mice are transported in their home cage to the testing room which is free of noise/distraction and the mice are injected with the compound of choice, prior to testing. For the KCNQ compounds, when administered IV, pretreatment time is 15 minutes. For oral administration, pretreatment time is 1 hour. Following the pretreatment, the animal is placed in the covered zone of the platform, always oriented in the same direction, facing the pillar. For 5 minutes the animals are allowed to freely explore the apparatus. The dependent variable is the number of Stretched Attend Postures, which are scored by an observer blind to treatment condition. Data were analyzed by an overall analysis of variance followed by Dunnett's post hoc tests. An effect was considered significant if p<0.05.
All test compounds are administered in a volume of 10 ml/kg. Vehicle and buspirone (as the positive control) treated mice were run with each experiment, and buspirone was dissolved in the same vehicle as used per each compound. Compounds of Formula I were administered IV, in a vehicle containing 10% PEG400/5% Tween/85% water, warmed on a hot plate.

[3] = system: cortical spreading depression (KCl application), Long-Evans rats; assay: In vivo electrophysiology: number of cortical spreading depressions produced by KCl application; conditions: 1 mg/kg, i.v., 15 min prior to KCl; rat
Description: Male Long-Evans rats (300-450 g) were used in the present studies (Harlan). Rats were anesthetized with urethane anesthesia (1.2 g/kg i.p.) and placed in a stereotaxic frame. Under anesthesia a Silastic catheter was placed in the jugular vein of the rats. The skull was exposed using a scalpel. A small hole (approximately 2 mm by 3 mm) was drilled in to the skull rostral to the lambdoid suture using a microdrill and steel burr. The dura was disrupted and a drop of mineral oil was placed in this hole to prevent dehydration of the underlying cortex. Ultimately this hole was used for the application of crystalline KCl (described below).
Two additional holes were place in the skull unilaterally at 4 and 8 mm rostral to the application hole. Silver wire electrodes were placed in these latter holes and secured to the skull using acrylic cement. A similar silver wire electrode was sutured to the nuchal muscle to serve as a reference electrode. Electrical DC recordings were obtained using a standard differential amplifier (Warner, DP-304) and commercially available data acquisition equipment (Cambridge Electronic Design, 1401 A-D converter and Spike2 software).
All experimental procedures were conducted while the rats were maintained under anesthesia. Rats were injected with test compound, valproic acid or vehicle (100% PEG-400) 15 min prior to the application of crystalline KCl to the application site described above. All injections were given via the jugular vein at a volume of ≦0.5 ml/kg. Only one treatment was tested per animal. The effect of valproic acid was also determined in this study due to the fact that Depakote™ (divalproex sodium) is one of only three drugs currently indicated for the prophylatic treatment of migraine headache. Valproic acid (30-200 mg/kg i.v.) was obtained from Sigma Chemical Company and was dissolved in a vehicle of isotonic saline.
KCl was applied to the application site for 10 min and was then removed using a saline soaked cotton swab. Mineral oil was subsequently reapplied to the application site. Typically, this application produced a long-lasting series of spreading depressions. The number of spreading depressions produced by this KCl application was the primary measure used to access the effectiveness of compounds in this assay.
Data were analyzed using analyses of variance followed by the Dunnett post-hoc test for pairwise comparisons, when appropriate. A difference was considered significant when p≦0.05.
The effect of representative compounds of Formula I on spreading depression is expressed as the percent reduction from vehicle control and is listed in Table 3.

Question: How did the “AUC (Δ% MPE)” value ([1]; 3 mg/kg) turn out when `C[C@H](NC(=O)/C=C/c1ccc(F)cc1)c1ccc2ccccc2c1` [Example 1, (S)-3-(4-Fluoro-phenyl)-N-(1-naphthalen-2-yl-ethyl)acrylamide] was run?
Answer: 8 (3 mg/kg, i.v.) Δ% MPE

Question: And the “% Reduction SAPs” value ([2]; 1.25 mg/kg)?
Answer: 44 (1.25 mg/kg, iv.) %

Question: What about the “% Reduction (number of spreading depressions, from vehicle control)” value [3] of the same molecule?
Answer: 25 (1 mg/kg, i.v.) %

Question: For `C[C@H](NC(=O)/C=C/c1ccccc1)c1cccc(N2CCOCC2)c1` [Example 82, (S)-3-Phenyl-N-[1-(3-morpholin-4-yl-phenyl)ethyl]acrylamide], which “AUC (Δ% MPE)” value ([1]; 10 mg/kg) is on record?
Answer: 25 (10 mg/kg, i.v.) Δ% MPE

Question: What about the “% Reduction SAPs” value ([2]; 30 mg/kg) of the same molecule?
Answer: 28 (30 mg/kg, i.v.) %

Question: And the “Stretched attend postures, percent of vehicle control” value ([2]; separate experiments with a vehicle control, dose not given)?
Answer: 75 % of vehicle control

Question: And the “% Reduction (number of spreading depressions, from vehicle control)” value [3]?
Answer: 27 (1 mg/kg, i.v.) %

Question: What does the source list for `C[C@H](NC(=O)/C=C/c1ccc(F)cc1)c1ccc(F)c(N2CCOCC2)c1` [Example 169, (S)-N-[1-(4-Fluoro-3-morpholin-4-yl-phenyl)-ethyl]-3-(4-fluoro-phenyl)-acrylamide]?
Answer: AUC (Δ% MPE) ([1]; 10 mg/kg): 31 (10 mg/kg,i.v.) Δ% MPE; % Reduction SAPs ([2]; 10 mg/kg): 18 (10 mg/kg, i.v.) %; % Reduction (number of spreading depressions, from vehicle control) [3]: 25 (1 mg/kg, i.v.) %
